In patent US20160272937A1, “METHODS OF GENERATING INTERMEDIATE MESODERM CELLS FROM HUMAN PLURIPOTENT STEM CELLS” (THE BRIGHAM AND WOMEN'S HOSPITAL, INC., priority 2013, published 2016):

Tested on: hPSCs (hESC and hiPSC lines)
Experiment: Intermediate mesoderm differentiation: PAX2/LHX1 immunostaining
Assay type: cell-based, human
Details: CHIR pre-treatment 48 hours compared to 24 or 36 hours, all time points
Description: Mesendoderm differentiation—the media is changed to Advanced RPMI (A-RPMI, Invitrogen) supplemented with 1×L-glutamax and 1× penicillin/streptomycin and either CHIR99021 (CHIR, Stemgent), human Wnt3a (R&D systems), and/or human activin A (R&D systems) at the doses described. Definitive endoderm differentiation—cells are treated with A-RPMI+1×L-glu+1×P/S+5 μM CHIR for 24 hours, then A-RPMI+1×Lglu+1×P/S+100 ng/mL of activin A for 2-3 days. Hepatic differentiation—cells at the definitive endoderm stage are treated with A-RPMI+1×L-glu+1×P/S+1×B27 supplement (Invitrogen)+20 ng/mL BMP-4 (R&D systems)+10 ng/mL FGF2 (Invitrogen) for 5 days, then A-RPMI+1×L-glu+1×P/S+1×B27+10 ng/mL HGF for 5 days, then HCM Hepatocyte Culture Medium (Lonza) supplemented with 20 ng/mL Oncostatin M and 10 ng/mL HGF (Peprotech) for 5 days. Pancreatic differentiation—cells at the definitive endoderm stage are treated with DMEM/F12+2% FBS (Hyclone)+50 ng/mL FGF7 (R&D systems) for 2 days, then high-glucose DMEM (Mediatech)+1% B27+2 μM retinoic acid (Sigma)+0.25 μM KAAD cyclopamine (EMD Millipore)+100 ng/mL recombinant human Noggin (R&D systems) for 4 days, then high-glucose DMEM+1% B27+100 ng/mL Noggin+300 nM indolactam V (Stemgent)+1 μM ALK5 inhibitor II (Axxora) for 4 days. Anterior foregut endoderm differentiation—cells at the definitive endoderm stage are treated with DMEM/F12+1×L-glu+1×B27+200 ng/mL Noggin+10 μM SB431542 (Stemgent) for 3 days. For hindgut endoderm differentiation, cells at the definitive endoderm stage were treated with A-RPMI+1×L-glu+1×P/S+2% FBS+500 ng/mL FGF4 (R&D systems)+5 μM CHIR for 4 days. […]
Nuclei can be counterstained with DAPI (Sigma). […] Immunofluorescence is visualized using an inverted fluorescence microscope (Nikon Eclipse Ti, Tokyo, Japan). Quantification is performed by counting a minimum of five random fields at 10× magnification. […]

Cc1c[nH]c(-c2cnc(NCCNc3ccc(C#N)cn3)nc2-c2ccc(Cl)cc2Cl)n1 [CHIR99021]
PAX2 expression: less PAX2 expression
